Experimental data reported in patent US6740505B1, “Production of proteins” (SmithKline Beecham Corporation, priority 1998, dated 2004).

Assays:
[1] = system: recombinant murine NS0 cells transfected with a IgG1 humanised anti-CD23 antibody; experiment: Antibody titre (Human IgG by nephelometric method) in repeated batch NS0 cell culture; assay type: cell-based; settings: 56 day culture
Procedure: (§1) Five Erlenmeyer flasks were inoculated with recombinant murine NS0 cells transfected with a IgG1 humanised anti-CD23 antibody (produced according to the method of Bebbington et al, as supra) in a cholesterol containing protein free/glutamine free medium at 0.2×10^6 cells/ml. Sodium butyrate (0.5M) in PBS was added to the flasks at the following concentrations: 0 mM; 0.025 mM; 0.05 mM; 0.075 mM and 0.10 mM and were incubated at […] and 100 rpm in a shake incubator for 4 days. Subsequently, the flasks were subcultured every four days to a start count of […], maintaining sodium butyrate concentrations as above in each flask. The flasks were sampled and assayed before each subculture. The culture was continued in this ‘draw-fill’/‘repeated batch’ manner for 56 days, maintaining sodium butyrate concentrations at the concentrations indicated throughout. Viable cells were counted for each sample taken as outlined below. Antibody titre for each sample taken was determined as outlined below.
The quantity of Human IgG was determined by a Nephelometric method (Tanford, C. (1961) Light Scattering. Physical Chemistry of Macromolecules. New York:Wiley, 275-316; Whicher J. T et al (1978), “An evaulation of Hyland laser nephelometer PDQ system for the measurement of immunoglobulins”; Ann.Clin.Biochem. 15, p77-85), whereby the formation of insoluble immune-precipitin of Human IgG with highly specific antibody to Human IgG was measured. The Nephelometer measured the intensity of the light scattered by the insoluble immune-precipitin in reaction solution. The change in intensity of the scattered light signal is proportional to the concentration of Human IgG in tested sample. The quantity of Human IgG in the sample is measured from a standard curve constructed from known concentration of purified Human IgG versus the rate of light scatter signal.

[2] = system: recombinant murine NS0 cells transfected with a IgG1 humanised anti-CD23 antibody; experiment: Viable cell count (Erythrosin B exclusion, haemocytometer) in repeated batch NS0 cell culture; assay type: cell-based; settings: 0.075 mM butyrate
Procedure: as §1
Culture was diluted as necessary in culture medium. It was examined microscopically in a haemocytometer (Neubauer counting chamber) using Erythrosin B (Sigma) 0.04% w/v in PBS, pH 7 as an exclusion dye. The number of viable and non-viable cells per milliliter and the percentage viability of the culture was calculated.

CCCC(=O)[O-].[Na+] [Butyrate, sodium butyrate]
antibody titre over control ([1]; 0.075 mM butyrate maintained in medium): marked increase in antibody titre over control | antibody titre over control ([1]; 0.075 mM butyrate maintained in medium, listed as butyrate): marked increase over control | consistency of protein production during the culturing process ([1]; 0.075 mM butyrate): more consistent production | antibody titre over control ([1]; 0.1 mM butyrate maintained in medium): marked increase in antibody titre over control | consistency of protein production during the culturing process ([1]; 0.1 mM butyrate): erratic protein production | decrease in viable cell count compared to control ([2]; by 56 day): narrowed considerably | viable cell count compared to control ([2]; early stages of the culturing process): slight decrease in viable cell count
